21 molecules from patent US10919885B2, “Compounds and uses thereof” (Yumanity Therapeutics, Inc., priority 2018, dated 2021) can be followed below.

What is called IC50 is the concentration that inhibits the measured activity by half. Low values mean greater potency in that assay, high ones weaker potency in that assay.

In one test the target is human SCD1 (Homo sapiens (Human), UniProt O00767). The test is described as follows: Yeast growth assay, strain expressing human SCD1 as the sole desaturase (reduced growth as surrogate for SCD inhibition). The test is classed as cell-based. Particulars: yeast with OLE1 deleted expressing human SCD1 from a plasmid; growth read as OD600 after 40 h at 30° C.; top drug concentration 33.3 μM. The essentials:
(§1)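 Human SCD1 or SCD5 expressed from a plasmid in OLE1-deleted yeast as the sole desaturase. Cells washed free of Tween and fatty acids, grown with compound in SD-Ura glucose medium 40 h at 30 °C; growth measured as OD600, reduced growth taken as SCD inhibition.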

Another test deals with human SCD5 (Homo sapiens (Human), UniProt Q86SK9). The test is described as follows: Yeast growth assay, strain expressing human SCD5 as the sole desaturase (reduced growth as surrogate for SCD inhibition). The test is classed as cell-based. Particulars: yeast with OLE1 deleted expressing human SCD5 from a plasmid; growth read as OD600 after 40 h at 30° C.; top drug concentration 33.3 μM. The essentials: as §1
Sequence of human SCD5 (Q86SK9 whole entry): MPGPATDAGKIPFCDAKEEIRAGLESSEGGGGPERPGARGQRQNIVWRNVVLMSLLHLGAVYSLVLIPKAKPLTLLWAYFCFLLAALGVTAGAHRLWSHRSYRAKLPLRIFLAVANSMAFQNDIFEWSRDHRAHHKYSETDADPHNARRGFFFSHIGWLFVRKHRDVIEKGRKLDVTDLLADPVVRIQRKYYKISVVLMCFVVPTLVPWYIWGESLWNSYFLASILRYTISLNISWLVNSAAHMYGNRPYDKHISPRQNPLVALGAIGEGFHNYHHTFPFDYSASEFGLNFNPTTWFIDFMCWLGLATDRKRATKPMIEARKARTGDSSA

Sequence of human SCD1 (O00767 whole entry): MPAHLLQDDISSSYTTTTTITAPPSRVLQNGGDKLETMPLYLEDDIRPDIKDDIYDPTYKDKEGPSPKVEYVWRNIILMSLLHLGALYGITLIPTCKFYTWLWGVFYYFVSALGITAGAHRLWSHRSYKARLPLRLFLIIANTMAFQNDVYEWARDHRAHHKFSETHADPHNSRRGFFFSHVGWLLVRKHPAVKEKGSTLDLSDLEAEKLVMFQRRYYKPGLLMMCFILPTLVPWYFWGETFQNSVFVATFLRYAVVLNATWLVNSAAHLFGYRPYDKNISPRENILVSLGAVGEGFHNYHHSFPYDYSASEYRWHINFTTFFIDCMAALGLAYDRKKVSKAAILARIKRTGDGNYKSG

Take `CC1(c2cc(C(=O)Nc3cnn(Cc4cccc(F)c4)c3)no2)COC1` [Compound 116]: the half-inhibitory concentration (IC50) at human SCD1 and against human SCD5 was over 45 µM in each case.
For `O=C(c1cc(-c2ccc3c(c2)OCO3)on1)N1CCCC12CC2` [Compound 371], the values for the IC50 on human SCD1 and on human SCD5 were 30.4 µM and 4.92 µM, respectively.
Consider `COc1ccc(C2CCCN2C(=O)c2cc(-c3ccc4ncoc4c3)on2)cc1` (stereo not drawn) [Compound 401], for which the IC50 at human SCD1 and at human SCD5 was over 45 µM each time.
On to `O=C(Nc1cnn(Cc2ccccc2)c1)c1cc(-c2ccncc2Cl)on1` [Compound 134, N-(1-benzyl-1H-pyrazol-4-yl)-5-(3-chloropyridin-4-yl)isoxazole-3-carboxamide], for which the concentration for half-maximal inhibition (IC50) against human SCD1 was determined as 5.32 µM; against human SCD5 it was 4.96 µM.
On to `O=C(c1cc(-c2ccccc2)on1)N1CCC(c2ccc(F)cc2)C1` (stereo not drawn) [Compound 334], for which the IC50 against human SCD1 and against human SCD5 was over 45 µM throughout.
For the molecule `O=C(Nc1cnn(Cc2cccc(F)c2)c1)c1cc(-c2cccnc2)on1` [Compound 55], the values for the IC50 at human SCD1 and at human SCD5 were 0.59 µM and over 45 µM, respectively.
Regarding `O=C(c1noc2c1CCCC2)N1CC(c2ccccc2)C1` [Compound 252, 3-(3-phenylazetidine-1-carbonyl)-4,5,6,7-tetrahydro-1,2-benzoxazole], the values for the half-maximal inhibitory concentration (IC50) against human SCD1 and against human SCD5 were over 45 µM and 7.5 µM, respectively.
Taken in the same sequence, the figures for `O=C(c1cc(-c2ccco2)on1)N1CC2(CCCC2)C1` [Compound 245] were over 45 µM and over 45 µM.
Taken in the same sequence, the figures for `CC(C)c1cc(C(=O)Nc2cnn(CC34CCC(CC3)CC4)c2)no1` [Compound 167] were over 45 µM and over 45 µM.
For `O=C(c1cc(-c2ccccc2)on1)N1CCN(c2cc(F)ccc2Cl)CC1` [Compound 297, (4-(2-chloro-5-fluorophenyl)piperazin-1-yl)(5-phenylisoxazol-3-yl)methanone], the results for the 50% inhibitory concentration (IC50) against human SCD1 and on human SCD5 were 19 µM and 5.58 µM, respectively.
Take `O=C(c1cc(-c2ccccc2)on1)N1CC(c2ccccc2)C1` [Compound 212, (3-phenylazetidin-1-yl)-(5-phenylisoxazol-3-yl)methanone]: the results for the IC50 at human SCD1 and on human SCD5 were 4.52 µM and 1.62 µM, respectively.
As to `O=C(c1cc(-c2ccc3c(c2)OCO3)on1)N1CC(O)C[C@H]1c1ccccc1` (stereo partly drawn) [Compound 414], the IC50 at human SCD1 was 30 µM; against human SCD5, over 45 µM.
On the same counts, the results for `Cc1nn(C)c2cc(-c3cc(C(=O)N4CCCC4c4cccnn4)no3)ccc12` (stereo not drawn) [Compound 462] are over 45 µM and over 45 µM.
With `O=C(Nc1cnn(Cc2ccccc2Cl)c1)c1cc(-c2cccc3c2cnn3C2COC2)on1` [Compound 94], the IC50 on human SCD1 and at human SCD5 was over 45 µM in each case.
For `Cc1cc(C2CCCN2C(=O)c2cc(-c3ccc4c(c3)OCO4)on2)on1` (stereo not drawn) [Compound 353], the IC50 against human SCD1 and against human SCD5 was over 45 µM throughout.
As for `Cc1c(NC(=O)c2cc(-c3ccco3)on2)cnn1Cc1ccc(Cl)c(Cl)c1` [Compound 21], the concentration for half-maximal inhibition (IC50) at human SCD1 and against human SCD5 was over 45 µM throughout.
For `O=C(c1cc(-c2ccccc2)on1)N1CCC(c2ccccc2)CC1` [Compound 314, (5-phenylisoxazol-3-yl)(4-phenylpiperidin-1-yl)methanone], the values for the IC50 against human SCD1 and against human SCD5 were over 45 µM and 1.63 µM, respectively.
On the same counts, the results for `O=C(c1cc(-c2ccc3c(c2)OCO3)on1)N1CC2(C1)CC(O)(c1ccccc1)C2` [Compound 224] are over 45 µM and 0.95 µM.
Taken in the same sequence, the figures for `COc1ccccc1-c1cc(C(=O)Nc2cnn(Cc3ccccc3)c2)no1` [Compound 136] were over 45 µM and over 45 µM.
For `N#Cc1ccc(Cn2cc(NC(=O)c3cc(-c4ccccc4)on3)cn2)nc1` [Compound 63], the IC50 against human SCD1 and on human SCD5 was over 45 µM each time.
`CC(C)c1cc(C(=O)Nc2cc3ccccn3n2)no1` [Compound 176]: the concentration for half-maximal inhibition (IC50) at human SCD1 and against human SCD5 was over 45 µM in each case.
